Results from patent publication US20160151408A1, “NOVEL THERAPY FOR MULTIPLE SCLEROSIS USING VITAMIN D AND GUT BACTERIA” (California Institute of Technology, priority 2012, published 2016).

How the values were obtained:
[1] = test system: Foxp3 among CD4+CD25+ T cells; test: Human monocyte / CD4+ T cell co-culture, Foxp3 expression; type: cell-based
Protocol: (§1) FIG. 5, panels A-C. Graphs and plots showing vitamin D augments the ability of PSA to promote TREGS. (FIG. 5, panel A) Mouse BMDCs were stimulated with PSA (or PBS), and Cyp27b1 transcript levels were measured by qRT-PCR. PSA induces the expression of Cyp27b1 from WT, but not TLR2−/− DCs. (FIG. 5, panel B) Mouse DCs were treated with PSA, washed and co-cultured with naïve CD4+ T cells. After 4 days, PSA increased Foxp3+TREGS (see % in red box). The vitamin D metabolite 25D augmented PSA-induced TREGS. (FIG. 5, panel C) Human monocytes were treated with PSA or vehicle, washed and co-cultured with CD4+ T cells from PBMCs of the same donor. The MR for Foxp3 among CD4+CD25+ T cells is shown, with or without TGFβ.
(§2) Next tested was whether vitamin D enhanced the ability of PSA to induce Foxp3+ TREG cells in vitro. BMDCs treated with PSA or PBS, with or without 25D, were incubated with CD4+ T cells from the spleens of mice. […] The Hewison group has described […] expression of CYP27B1 in human DCs, and has shown the effects of vitamin D on human TREG development in vitro [11]. However, the ability of PSA to induce human Foxp3+ TREG cells has not been reported. […] These studies further link PSA-induced TREGS to the vitamin D pathway. Thus, PSA and vitamin D may promote human TREG cells.

[2] = test system: CD4+Foxp3+ T cells; test: Mouse DC / CD4+ T cell co-culture, Foxp3+ TREG induction; type: cell-based
Protocol: as §1, §2

[3] = test system: VDR; test: VDR mRNA levels in colonic tissue of germ-free mice; conditions: oral gavage of GF animals
[4] = test system: Cyp27b1; test: Cyp27b1 transcript levels in PSA-stimulated BMDCs (qRT-PCR); type: cell-based, Mouse
Protocol: as §1
As described, the ability of PSA to protect against colitis & EAE in mice involves Foxp3+ TREGS [8,48]. The inventors recognize that vitamin D may play a pivotal role in microbial-induced TREGS, given the ability of 1,25D to promote TREG generation and the novel findings that PSA induces the vitamin D-system. First, the cell type that is responsible for PSA-dependent conversion of 25D to active 1,25D was made. The inventors have shown that PSA activates DCs, which prime TREG responses.

[5] = test system: Cyp27b1; test: Colonic Cyp27b1 mRNA by qRT-PCR in mice; conditions: mice on vitamin D deficient diet for 6 weeks, fed PSA for 2 weeks
[6] = test system: experimental autoimmune encephalomyelitis (EAE); test: EAE clinical scores in mice on normal or vitamin D-deficient diet; type: in vivo, C57BL/6 mice
Protocol: FIG. 2, panels A-D. Graphs showing germ-free (GF) mice are attenuated in EAE. Female C57B1/6 mice were immunized subcutaneously (s.c.) with 150 μg MOG35-55 peptide with 200 μg of Complete Freund's adjuvant (CFA). On the same day and 2 days later, mice were injected intraperitoneally (i.p.) with 150 ng/mouse of pertussis toxin. (FIG. 2, panel A) Clinical EAE scores of SPF (dark symbols) and GF (light symbols). Data are representative of three independent experiments. (FIG. 2, panel B) Proportions of SPF and GF mice that develop various degrees of EAE, as assessed by clinical score. Results are combined from 4 experiments, with a total of 20 for SPF and 22 for GF mice. (FIG. 2, panel C) IFNγ and IL-17A cytokine ELISA analysis of cells harvested from draining lymph nodes of SPF and GF mice 8 days after immunization with MOG/CFA and cultured for 3 days in vitro with MOG peptide. (FIG. 2, panel D) CD4+CD25+Foxp3+ T cells at day 15 post-immunization. Cells were cultured for 3 days with MOG peptide, and analyzed by flow cytometry. Data from Lee et al., PANS, 2011 [2].
FIG. 6. […]
To asses EAE in mice, mice can be evaluated daily for signs of disease. The clinical course of the EAE can be scored according to the severity as follows: 0=no obvious signs of disease, 0.5=partial tail weakness (cannot raise tail against gravity), 1=limp tail, 1.5=limp tail and hindlimb weakness, 2=limp tail and impairment in righting reflex, 2.5=limp tail and hindlimb paresis (as determined by gait abnormality), 3=bilateral hindlimb paralysis, 3.5=bilateral hindlimb paralysis and forelimb paresis (as determined by in ability of the mouse to strongly grasp cage bars with the fore paws when placed on top), 4=moribund, 5=dead. […] Reduced symptoms of EAE can be evaluated by comparing clinical scores.
PSA protects mice from EAE [8]; however, it is unknown whether PSA protection requires vitamin D. To address whether PSA may serve as a viable therapy for vitamin D deficient MS patients, mice on vitamin D sufficient and deficient diets were raised, EAE was induced, and PSA's protective effects were assessed.

[7] = test system: colitis; conditions: refs [4,5,22]; cited from earlier work
[8] = test system: EAE; conditions: refs [6,8], [31,32]; cited from earlier work

Question: Which “PSA-mediated TREG cells, effect of added TGFβ” value ([1]; with TGFβ) does the source give for TGFβ [reference compound] here?
Answer: The value was “does not further enhance PSA-mediated TREG cells”.

Question: With `C=C1CC[C@H](O)C/C1=C/C=C1\CCC[C@]2(C)[C@@H]([C@H](C)CCCC(C)(C)O)CC[C@@H]12` [25D, 25-hydroxyvitamin-D3, reference compound] as the molecule, how does the “PSA-induced CD4+Foxp3+ T cells, effect of co-treatment” value ([2]; BMDCs treated with PSA with 25D) read?
Answer: Its value is “enhanced by co-treatment with 25D”.

Question: With polysaccharide A [PSA] as the molecule, how does the “expression of VDR in the colon” value [3] read?
Answer: Its value is “increases expression of VDR”.

Question: What about the “Cyp27b1 expression from BMDCs” value ([4]; TLR2−/− DCs) of the same molecule?
Answer: Its value is “did not respond to PSA”.

Question: And the “Cyp27b1 expression from BMDCs” value ([4]; WT bone marrow-derived dendritic cells)?
Answer: The value was “induces Cyp27b1 expression”.

Question: And the “colonic Cyp27b1 expression” value [5]?
Answer: The value was “induces increased colonic Cyp27b1”.

Question: What about the “interaction of PSA with vitamin D in EAE protection” value ([6]; PSA groups on sufficient versus deficient diet) of the same molecule?
Answer: The value was “synergizes with vitamin D during protection from EAE”.

Question: What about the “EAE clinical score at the peak of disease” value ([6]; day 14, vitamin D sufficient and deficient diets, PSA 100 μg/dose orally 3×/week) of the same molecule?
Answer: The value was “protected from EAE”.

Question: And the “EAE clinical score during the remission phase” value ([6]; day 20-35, vitamin D sufficient diet versus deficient, PSA 100 μg/dose orally 3×/week)?
Answer: The value was “attenuated in disease during the remission phase if they were fed vitamin D sufficient diets”.

Question: What about the “proportions of CD4+Foxp3+ T cells in culture” value ([2]; BMDCs treated with PSA, co-cultured with CD4+ T cells, 4 days) of the same molecule?
Answer: Its value is “increases the proportions of CD4+Foxp3+ T cells in culture”.

Question: And the “colitis (literature)” value [7]?
Answer: The value was “prevents and treats colitis in mice”.

Question: And the “EAE disease (literature)” value [8]?
Answer: Its value is “ameliorates and treats EAE”.

Question: And the “Foxp3 expression in human TREGS” value ([1]; monocytes treated with PSA, co-cultured with CD4+ T cells from PBMCs of the same donor)?
Answer: Its value is “promotes Foxp3 expression in human TREGS in vitro”.

Question: With `C=C1/C(=C\C=C2/CCC[C@]3(C)[C@@H]([C@H](C)CCCC(C)(C)O)CC[C@@H]23)C[C@@H](O)C[C@@H]1O` [1,25D, 1,25-dihydroxyvitamin D3, reference compound] as the molecule, how does the “EAE disease (literature)” value [8] read?
Answer: Its value is “protected from disease”.
